In US20060211651A1, “Persulfated oligosaccharide acting on selectins and chemokine” (Taisho Pharmaceutical Co., Ltd., priority 2002, published 2006):

Key:
[1] = molecular target: T1, stromal cell-derived factor-1β (Homo sapiens, UniProt P48061); test: BIAcore surface plasmon resonance, immobilized glycosaminoglycan vs SDF-1β; type: binding; conditions: for Kd / koff / kon: GAG immobilized, 25° C.
T1 construct: purchased Pepro Tech
Description: Affinity kinetics of the interaction between various CS/DS chains and each of L-selectin, P-selectin, CD44 and chemokine were examined by surface plasmon resonance using BIAcore™ biosensor [manufactured by BIAcore AB].
All experiments were performed at 25° C. At stages of washing and dissociation, buffer C (20 mM HEPES-NaOH, 0.15M NaCl, 1 mM CaCl2, 1 mM MgCl2, pH6.8) was used as a running buffer.
First, about 1.8 to 2.0 kiloresonance unit (1 kiloresonance unit=1 ng/mm^2) of streptavidin were covalently immobilized onto B1 sensor chip via a primary amine group using an amine coupling kit [manufactured by Amercham-Bioscience] according to the instruction provided by the manufacturer. The remaining activated groups were blocked with 150 μl of 1M ethanolamine-HCl (pH8.5). Then, each glycosaminoglycan which had been biotinylated at a reducing end was injected to a sensor tip surface by using EZ-link™ biotin-LC-hydrazide [manufactured by Pierce] so as to obtain about 150 resonance unit of an immobilization level, according to the method of Sadir et al. [J. Biol. Chem., 276, 8288-8296 (2001); all teachings of which are hereby incorporated by reference].
Binding assay was performed by injecting continuously each of various concentrations of secondary lymphoid tissue chemokine, γ-interferon inducible protein-10, stromal cell-derived factor-1β, monomeric L-selectin [manufactured by Genzyme-Techne], monomeric P-selectin [manufactured by Genzyme-Techne] and monomeric CD44, to a glycosaminoglycan-coupled sensor tip at a flow rate of 30 μl/min for 0 to 90 seconds, and then injecting a running buffer thereto. A response in resonance unit was recorded as a function of a time.
A sensor tip surface was regenerated with 300 μl of 1 M NaCl when chemokine or CD44 was used, or regenerated with 300 μl of 1 M NaCl, and additional 100 μl of 50 mM EDTA (pH8.0), when selectin was used. As a result of regeneration of a sensor tip surface, a remarkable change in a baseline was not observed.
An affinity kinetic parameter was determined by BIAevaluation 3.0 software [manufactured by Pharmacia Biosensor] using a single site binding model. […] In FIG. 6 and Table 3, SLC denotes secondary lymphoid tissue chemokin, IP-10 denotes γ-interferon inducible protein-10, SDF-1β denotes stromal cell-derived factor-1β, CS E denotes chondroitin sulfate E, and CS A denotes chondroitin sulfate A. In addition, in Table 3, Kd value for the interaction between monomeric CD44 and chondroitin sulfate E is a value calculated from a binding amount at equilibrium, and Kd value of the interaction between CD44 and hyaluronic acid is a value calculated using CD44-Ig.

[2] = test system: secondary lymphoid tissue chemokine; test: Ca2+ mobilization in L1.2/CCR7 cells stimulated with SLC; type: cell-based; conditions: glycosaminoglycan 100 μg/ml; L1.2/CCR7 cells loaded with Fura-2; FIG. 8
Description: i) applying Fura-2 to stimulate to L1.2/CCR7 cell (1×10^6 cells/ml) with secondary lymphoid tissue chemokine in the presence or absence of the therapeutic or prophylactic agent (100 μg/ml) of the present invention, and
ii) measuring a fluorescent rate to monitor an intracellular calcium concentration according to the description of Hirose, J. et al. [J. Biol. Chem., 276, 5228-5234 (2001); all teachings of which are hereby incorporated by reference].
L1.2/CCR7 cells (1×10^6 cells/ml) were loaded with Fura-2, and then stimulated with secondary lymphoid tissue chemokine (“SLC” in FIG. 8) or C-terminal truncated secondary lymphoid tissue chemokine (“SLC-T” in FIG. 8), in the presence or absence of glycosaminoglycan (100 μg/ml). The intracellular calcium concentration was monitored by measuring a fluorescent rate in the same manner as described in the previous report [Hirose, J. et al., J. Biol. Chem., 276, 5228-5234 (2001)]. Chondroitin sulfate E (“CS E” in FIG. 8) and chondoroitin sulfate A (“CS A” in FIG. 8) were used as the glycosaminoglycan. In FIG. 8, an arrowhead indicates a time point at which stimulation was given.

CD44-Ig = test: ELISA, biotinylated versican binding to CD44-Ig in presence of glycosaminoglycan; parameters: species or system human; conditions: 100 μg/ml glycosaminoglycan; FIG. 5
Description: (§1) A well of a 96 well flat bottom microtiter plate was coated with BSA (5 μg/ml), anti-versican monoclonal antibody 2B1 (5 μg/ml), CD44-Ig (7 μg/ml), L-selectin-Ig (3 μg/ml), P-selectin-Ig (3 μg/ml) or chemokine (1 μg/ml), and then blocked with a phosphate buffered physiological saline containing 3% by weight of BSA. As the above chemokine, secondary lymphoid tissue chemokine, γ-interferon inducible protein-10, platelet factor 4, stromal cell-derived factor-1β [manufactured by Pepro Tech] and stromal cell-derived factor-1α [manufactured by Pepro Tech] were used.
(§2) Thereafter, the plate was washed with the buffer A, and enzyme-linked immunosorbent assay was performed in the same manner as that of the previous report [Kawashima, H. et al., J. Biol. Chem., 275, 35448-35456 (2000)]. Binding was determined by measuring absorbance at 620 nm using alkaline phosphatase-conjugated streptavidin and Blue Phos™ substrate. In FIG. 5, expression of an abscissa axis is the same as that of FIG. 4.

L-selectin-Ig = molecular target: T2, L-selectin-Ig (Homo sapiens, UniProt P14151); test: ELISA, biotinylated versican binding to L-selectin-Ig in presence of glycosaminoglycan; conditions: 100 μg/ml glycosaminoglycan; FIG. 5
T2 construct: purchased R & D Systems Inc
Description: as §1, §2

T2 sequence (P14151 with tags, fused parts or gaps limits assumed): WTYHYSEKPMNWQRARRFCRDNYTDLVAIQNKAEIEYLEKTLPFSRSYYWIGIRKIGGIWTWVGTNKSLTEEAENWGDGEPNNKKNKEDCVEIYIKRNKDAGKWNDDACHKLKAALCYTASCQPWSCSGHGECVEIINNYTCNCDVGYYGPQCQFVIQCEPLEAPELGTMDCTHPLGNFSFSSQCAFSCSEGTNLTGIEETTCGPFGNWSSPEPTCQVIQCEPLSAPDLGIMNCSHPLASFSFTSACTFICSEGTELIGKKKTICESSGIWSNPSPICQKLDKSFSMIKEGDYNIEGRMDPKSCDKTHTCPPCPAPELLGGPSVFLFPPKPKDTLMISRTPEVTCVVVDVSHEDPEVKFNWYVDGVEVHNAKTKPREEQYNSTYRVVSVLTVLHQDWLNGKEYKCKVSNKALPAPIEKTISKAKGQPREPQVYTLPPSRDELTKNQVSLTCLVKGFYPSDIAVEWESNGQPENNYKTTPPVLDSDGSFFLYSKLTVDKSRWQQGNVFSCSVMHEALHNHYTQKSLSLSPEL
T1 sequence (P48061 22-93): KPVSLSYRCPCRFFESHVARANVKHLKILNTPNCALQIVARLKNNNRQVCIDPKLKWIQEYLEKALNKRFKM
Chain of CD44-Ig (P16070 21-178 limits assumed): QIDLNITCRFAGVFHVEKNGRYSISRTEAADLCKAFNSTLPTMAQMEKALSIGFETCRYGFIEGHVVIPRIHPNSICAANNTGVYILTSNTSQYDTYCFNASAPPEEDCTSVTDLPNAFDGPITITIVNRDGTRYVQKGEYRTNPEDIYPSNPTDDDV

| Substance | interaction with immobilized glycosaminoglycan (sensorgram) [1] | Kd [1] [nM] | koff [1] [s⁻¹] | kon [1] [M⁻¹ s⁻¹] | Ca^2+ mobilization by secondary lymphoid tissue chemokine pre-incubated with glycosaminoglycan [2] | inhibition of binding between biotinylated versican and CD44-Ig (CD44-Ig) | inhibition of binding between biotinylated versican and L-selectin (L-selectin-Ig) |
| --- | --- | --- | --- | --- | --- | --- | --- |
| chondroitin sulfate E [CS E] | bound | 293 | 0.0053 | 18100 | did not induce | inhibited | inhibited |
| chondroitin sulfate A [CS A] | did not interact | – | – | – | remarkably induced | inhibited | – |
| chondroitin polysulfate [CPS] | – | 86.3 | 0.00304 | 35200 | did not induce | not remarkable | inhibited |
| dermatan polysulfate [DPS] | – | – | – | – | did not induce | inhibited | inhibited |
